Measurements reported in patent publication US7414051B2, “Substituted-dihydro[1,4]oxazino[2,3,4-hi]indazole derivatives as 5-hydroxytryptamine-6 ligands” (Wyeth, priority 2006, dated 2008).
Where a name gives a salt, the structure may show the parent alone.

Tests used:
[1] = biological target: T1, human cloned 5-HT6 receptors (Homo sapiens, UniProt P50406); assay: 5-HT6 binding affinity, [3H]-LSD displacement, membranes of Hela cells expressing human cloned 5-HT6 receptors
T1 construct: expressed in transfected cells; host or cells: HeLa cells
T1 sequence (P50406 whole entry): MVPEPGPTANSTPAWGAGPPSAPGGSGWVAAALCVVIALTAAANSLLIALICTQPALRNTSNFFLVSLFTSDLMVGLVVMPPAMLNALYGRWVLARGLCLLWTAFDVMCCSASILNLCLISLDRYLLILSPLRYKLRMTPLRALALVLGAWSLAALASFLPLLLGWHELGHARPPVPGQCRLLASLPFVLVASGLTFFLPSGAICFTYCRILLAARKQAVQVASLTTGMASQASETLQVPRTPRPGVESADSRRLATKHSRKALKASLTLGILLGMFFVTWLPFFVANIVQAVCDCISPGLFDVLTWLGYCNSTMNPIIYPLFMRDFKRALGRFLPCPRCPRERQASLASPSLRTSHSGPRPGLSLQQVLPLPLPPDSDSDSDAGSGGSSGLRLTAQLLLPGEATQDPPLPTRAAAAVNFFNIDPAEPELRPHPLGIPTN
Description: The affinity of test compounds for the serotonin 5-HT6 receptor was evaluated in the following manner. Cultured Hela cells expressing human cloned 5-HT6 receptors were harvested and centrifuged at low speed (1,000×g) for 10.0 minutes to remove the culture media. The harvested cells were suspended in half volume of fresh physiological phosphate buffered saline solution and recentrifuged at the same speed. This operation was repeated. The collected cells were then homogenized in ten volumes of 50 mM Tris.HCl (pH 7.4) and 0.5 mM EDTA. The homogenate was centrifuged at 40,000×g for 30.0 min and the precipitate was collected. The obtained pellet was resuspended in 10 volumes of Tris.HCl buffer and recentrifuged at the same speed. The final pellet was suspended in a small volume of Tris.HCl buffer and the tissue protein content was determined in aliquots of 10-25 μl volumes. Bovine Serum Albumin was used as the standard in the protein determination according to the method described in Lowry et al., J. Biol. Chem., 193: 265 (1951). The volume of the suspended cell membranes was adjusted to give a tissue protein concentration of 1.0 mg/ml of suspension. The prepared membrane suspension (10 times concentrated) was aliquoted in 1.0 ml volumes and stored at −70° C. until used in subsequent binding experiments.
Binding experiments were performed in a 96 well microtiter plate format, in a total volume of 200 μl. […] The test compounds were added in 20.0 μl volume.
The reaction was allowed to proceed in the dark for 120 minutes at room temperature, at which time, the bound ligand-receptor complex was filtered off on a 96 well unifilter with a Packard Filtermate® 196 Harvester. The bound complex caught on the filter disk was allowed to air dry and the radioactivity is measured in a Packard TopCount® equipped with six photomultiplier detectors, after the addition of 40.0 μl Microscint®-20 scintillant to each shallow well. The unifilter plate was heat-sealed and counted in a PackardTopCount® with a tritium efficiency of 31.0%.
Binding in the presence of varying concentrations of test compound was expressed as a percentage of specific binding in the absence of test compound. The results were plotted as log % bound versus log concentration of test compound. […] A linear regression line of data points was plotted, from which the IC50 value is determined and the Ki value is determined based upon the following equation: Ki=IC50/(1+L/KD) where L was the concentration of the radioactive ligand used and KD is the dissociation constant of the ligand for the receptor, both expressed in nM.

Q: Which melting point does the source give for `CN1CCN(c2cc3c4c(c2)c(S(=O)(=O)c2cccc5ccccc25)nn4CCO3)CC1` (as salt: hydrochloride) [Example 6, 8-(4-Methylpiperazin-1-yl)-6-(1-naphthylsulfonyl)-2,3-dihydro[1,4]oxazino[2,3,4-hi]indazole Hydrochloride] here?
A: > 225 °C

Q: For `CN1CCN(c2cc3c4c(c2)c(S(=O)(=O)c2cccc5ccccc25)nn4CCO3)CC1` [Example 6, 8-(4-Methylpiperazin-1-yl)-6-(1-naphthylsulfonyl)-2,3-dihydro[1,4]oxazino[2,3,4-hi]indazole Hydrochloride], which Ki [1] is on record?
A: 1 nM

Q: Which Ki [1] does the source give for `CNCCOc1cc2c3c(c1)c(S(=O)(=O)c1cccc4ccccc14)nn3CCO2` [Example 12, N-methyl-2-{[6-(1-naphthylsulfonyl)-2,3-dihydro[1,4]oxazino[2,3,4-hi]indazol-8-yl]oxy}ethanamine Hydrochloride] here?
A: 5.1 nM

Q: With `CN(C)CCOc1cc2c3c(c1)c(S(=O)(=O)c1cccc4ccccc14)nn3CCO2` [Example 13, N,N-Dimethyl-2-{[6-(1-naphthylsulfonyl)-2,3-dihydro[1,4]oxazino[2,3,4-hi]indazol-8-yl]oxy}ethanamine] as the compound, how does the Ki [1] read?
A: 7.9 nM

Q: Which melting point does the source give for `O=S(=O)(c1cccc2ccccc12)c1nn2c3c(cc(OCCN4CCCCC4)cc13)OCC2` [Example 14, 6-(1-Naphthylsulfonyl)-8-(2-piperidin-1-ylethoxy)-2,3-dihydro[1,4]oxazino[2,3,4-hi]-indazole] here?
A: 90 to 92 °C

Q: And the Ki [1]?
A: 26 nM

Q: Which melting point does the source give for `O=S(=O)(c1cccc2ccccc12)c1nn2c3c(cc(OCCN4CCCC4)cc13)OCC2` [Example 15, 6-(1-Naphthylsulfonyl)-8-(2-pyrrolidin-1-ylethoxy)-2,3-dihydro[1,4]oxazino[2,3,4-hi]-indazole] here?
A: 127 to 129 °C

Q: What about the Ki [1] of the same compound?
A: 14 nM
